In ChEMBL document CHEMBL3272202, “Synthesis and pharmacological activity of some N-alkyl-substituted 9alpha-ethyl-2'-hydroxy-5-methyl-6,7-benzomorphans” (J Med Chem, 1977):
The source made the active and inactive calls. No cut-off for these calls is given here.

Key:
[1] = tested on: Mus musculus; assay: Narcotic analgesic activity in sc dosed mouse by hot-plate test; assay type: functional
[2] = tested on: Rattus norvegicus; assay: Narcotic analgesic activity in sc dosed rat by tail-flick test; assay type: functional
[3] = tested on: Rattus norvegicus; assay: Narcotic antagonist activity in sc dosed rat by tail-flick test; assay type: functional
[4] = tested on: Mus musculus; assay: Narcotic analgesic activity in sc dosed mouse by Nilsen test; assay type: functional
[5] = tested on: Rhesus monkey; assay: Toxicity in morphine-dependent monkey assessed as morphine substitution at 2.5 to 20 mg/kg measured during single dose suppression test; assay type: organism-based, Macaca mulatta; parameters: dose 2.5-20 mg/kg; details: in vivo
[6] = tested on: Mus musculus; assay: Narcotic analgesic activity in sc dosed mouse assessed as suppression of phenylquinone-induced writhing; assay type: functional
[7] = tested on: Rattus norvegicus; assay: Narcotic antagonist activity in rat at 30 mg/kg, sc by tail-flick test relative to control; assay type: functional
[8] = tested on: Rhesus monkey; assay: Toxicity in morphine-dependent monkey assessed as morphine substitution at 2.5 to 20 mg/kg measured during precipitated withdrawl test; assay type: organism-based, Macaca mulatta; parameters: dose 2.5-20 mg/kg; details: in vivo
[9] = tested on: Mus musculus; assay: Toxicity in mouse assessed as hyperactivity at 3 to 10 mg/kg, sc; assay type: organism-based; parameters: dose 3-10 mg/kg, route subcutaneous; details: in vivo
[10] = tested on: Mus musculus; assay: Narcotic analgesic activity in mouse assessed as suppression of phenylquinone-induced writhing at 10 mg/kg, sc relative to control; assay type: functional; details: route subcutaneous
[11] = tested on: Mus musculus; assay: Narcotic analgesic activity in mouse at 10 to 40 mg/kg, sc by Nilsen test; assay type: functional, organism-based
[12] = tested on: Mus musculus; assay: Toxicity in mouse assessed as ataxia at 3 to 10 mg/kg, sc; assay type: organism-based; parameters: dose 3-10 mg/kg, route subcutaneous; details: in vivo
[13] = tested on: Mus musculus; assay: Narcotic analgesic activity in mouse at 50 mg/kg, sc by Nilsen test; assay type: functional, organism-based; parameters: dose 50 mg/kg
[14] = tested on: Rhesus monkey; assay: Toxicity in morphine-dependent monkey assessed as motor incoordination; assay type: organism-based, Macaca mulatta; details: in vivo
[15] = tested on: Mus musculus; assay: Narcotic analgesic activity in mouse at 100 mg/kg, sc by hot-plate test; assay type: functional, organism-based; parameters: dose 100 mg/kg
[16] = tested on: Rattus norvegicus; assay: Narcotic analgesic activity in rat at 30 mg/kg, sc by tail-flick test relative to control; assay type: functional
[17] = tested on: Rhesus monkey; assay: Toxicity in morphine-dependent monkey assessed as convulsion; assay type: organism-based, Macaca mulatta; details: in vivo
[18] = tested on: Rhesus monkey; assay: Toxicity in morphine-dependent monkey assessed as depression of central nervous system; assay type: organism-based, Macaca mulatta; details: in vivo
[19] = tested on: Rhesus monkey; assay: Toxicity in morphine-dependent monkey assessed as precipitation of abstinence signs; assay type: organism-based, Macaca mulatta; details: in vivo
[20] = tested on: Mus musculus; assay: Narcotic analgesic activity in mouse at 20 to 50 mg/kg, sc by hot-plate test; assay type: functional, organism-based
[21] = tested on: Rhesus monkey; assay: Narcotic antagonist activity in morphine-dependent monkey by precipitated withdrawl test; assay type: functional, organism-based; details: Macaca mulatta
[22] = tested on: Rhesus monkey; assay: Narcotic antagonist activity in morphine-dependent monkey by single dose suppression test; assay type: functional, organism-based; details: Macaca mulatta
[23] = tested on: Mus musculus; assay: Toxicity in mouse at 50 mg/kg, sc; assay type: organism-based; parameters: dose 50 mg/kg, route subcutaneous; details: in vivo
[24] = tested on: Mus musculus; assay: Narcotic analgesic activity in mouse at 50 mg/kg by hot-plate test; assay type: functional, organism-based; parameters: dose 50 mg/kg
[25] = tested on: Mus musculus; assay: Narcotic analgesic activity in mouse at 20 mg/kg, sc by Nilsen test; assay type: functional, organism-based; parameters: dose 20 mg/kg
[26] = tested on: Rhesus monkey; assay: Toxicity in morphine-dependent monkey assessed as depression of central nervous system in presence of nalorphine; assay type: organism-based, Macaca mulatta; details: in vivo
[27] = tested on: Rattus norvegicus; assay: Narcotic antagonist activity in rat at 10 mg/kg, sc by tail-flick test; assay type: functional
[28] = tested on: Rhesus monkey; assay: Toxicity in morphine-dependent monkey assessed as depression of central nervous system in presence of naloxone; assay type: organism-based, Macaca mulatta; details: in vivo
[29] = tested on: Mus musculus; assay: Narcotic analgesic activity in mouse assessed as suppression of phenylquinone-induced writhing at 30 mg/kg, sc relative to control; assay type: functional; details: route subcutaneous
[30] = tested on: Mus musculus; assay: Narcotic analgesic activity in mouse at 5 to 10 mg/kg, sc by Nilsen test; assay type: functional, organism-based
[31] = tested on: Mus musculus; assay: Toxicity in mouse at 5 to 10 mg/kg, sc; assay type: organism-based; parameters: dose 5-10 mg/kg, route subcutaneous; details: in vivo
[32] = tested on: Rattus norvegicus; assay: Narcotic antagonist activity in rat at 1 to 10 mg/kg, sc by tail-flick test; assay type: functional, organism-based
[33] = tested on: Rhesus monkey; assay: Toxicity in morphine-dependent monkey assessed as morphine substitution measured during precipitated withdrawl test; assay type: organism-based, Macaca mulatta; details: in vivo
[34] = tested on: Rhesus monkey; assay: Toxicity in morphine-dependent monkey assessed as morphine substitution measured during single dose suppression test; assay type: organism-based, Macaca mulatta; details: in vivo

CN1CC[C@]23c4c5ccc(O)c4O[C@H]2[C@@H](O)C=C[C@H]3[C@H]1C5 [MORPHINE]
ED50 [1]: 1.2 mg/kg
ED50 [2]: 5.34 mg/kg
AD50 [3]: inactive
ED50 [4]: 0.8 mg/kg

CCCCCCN1CC[C@]2(C)c3cc(O)ccc3C[C@@H]1[C@@H]2CC (racemic)
Activity [5]: Non-toxic
ED50 [1]: 6.2 mg/kg
ED50 [6]: 5.7 mg/kg
ED50 [2]: 18.7 mg/kg
Activity [7]: inactive
Activity [8]: Non-toxic

CCCN1CC[C@]2(C)c3cc(O)ccc3C[C@@H]1[C@@H]2CC (racemic)
Activity [9]: Toxic
ED50 [1]: inactive
Activity [10]: 55%
ED50 [2]: inactive
Activity [11]: inactive
AD50 [3]: 0.7 mg/kg
Activity [12]: Toxic

CCCCCCCN1CC[C@]2(C)c3cc(O)ccc3C[C@@H]1[C@@H]2CC (racemic)
ED50 [1]: 9.9 mg/kg
ED50 [6]: 7.3 mg/kg
ED50 [2]: 14 mg/kg
AD50 [3]: inactive

C=CCCCN1CC[C@]2(C)c3cc(O)ccc3C[C@@H]1[C@@H]2CC (racemic)
Activity [13]: inactive
Activity [14]: Toxic
Activity [15]: inactive
inhibition [16]: inactive
ED50 [6]: 2.56 mg/kg
Activity [17]: Toxic
Activity [18]: Toxic
AD50 [3]: 1.18 mg/kg
Activity [19]: Toxic

CCCCCCCCN1CC[C@]2(C)c3cc(O)ccc3C[C@@H]1[C@@H]2CC (racemic)
ED50 [1]: inactive
ED50 [6]: 15.1 mg/kg
ED50 [2]: inactive
AD50 [3]: inactive

CCCCCN1CC[C@]2(C)c3cc(O)ccc3C[C@@H]1[C@@H]2CC (racemic)
ED50 [1]: 4.2 mg/kg
ED50 [6]: 1.8 mg/kg
ED50 [2]: 28.1 mg/kg
Activity ([7]; route subcutaneous): 39%
AD50 [3]: inactive

CC[C@H]1[C@H]2Cc3ccc(O)cc3[C@@]1(C)CCN2CC=C(C)C (racemic)
ED50 [1]: 8.9 mg/kg
Activity [10]: 36%
ED50 [2]: inactive
AD50 [3]: 3.1 mg/kg
ED50 [4]: 26.8 mg/kg

C=CCN1CC[C@]2(C)c3cc(O)ccc3C[C@@H]1[C@@H]2CC (racemic)
Activity [20]: inactive
Activity [21]: Active
inhibition [16]: inactive
ED50 [6]: 15.7 mg/kg
Activity [22]: Active
AD50 [3]: 0.6 mg/kg

CCCCN1CC[C@]2(C)c3cc(O)ccc3C[C@@H]1[C@@H]2CC (racemic)
ED50 [1]: inactive
inhibition [16]: inactive
Activity [23]: Toxic
ED50 [6]: 13 mg/kg
AD50 [3]: 2.38 mg/kg
Activity [24]: inactive
Activity [25]: inactive

C=CCN1CC[C@]23c4c5ccc(O)c4O[C@H]2C(=O)CC[C@@]3(O)[C@H]1C5
Activity [21]: Active
Activity [22]: Active

CC[C@H]1[C@H]2Cc3ccc(O)cc3[C@@]1(C)CCN2CC1CCC1 (racemic)
Activity [26]: Toxic
Activity [27]: inactive
ED50 [1]: 1.8 mg/kg
ED50 [6]: 0.31 mg/kg
Activity [28]: Non-toxic
AD50 [3]: 0.477 mg/kg
ED50 [4]: 2.9 mg/kg
Activity [19]: Toxic

CC[C@H]1[C@H]2Cc3ccc(O)cc3[C@@]1(C)CCN2CC (racemic)
ED50 [1]: 21.3 mg/kg
ED50 [2]: inactive
inhibition in vivo at 30 mg/kg [29]: 27%
AD50 [3]: 5.5 mg/kg

CC[C@H]1[C@H]2Cc3ccc(O)cc3[C@@]1(C)CCN2CC1CC1 (racemic)
Activity [30]: inactive
Activity ([27]; route subcutaneous): 12%
Activity [21]: Active
ED50 [1]: inactive
ED50 [6]: 2.1 mg/kg
Activity [22]: Active
AD50 [3]: 0.19 mg/kg
Activity [31]: Toxic

CC[C@H]1[C@H]2Cc3ccc(O)cc3[C@@]1(C)CCN2 (racemic)
ED50 [1]: inactive
inhibition in vivo at 30 mg/kg ([16]; route subcutaneous): 37%
inhibition in vivo at 30 mg/kg [29]: 45%
Activity [7]: inactive

C=CCN1CC[C@]23c4c5ccc(O)c4O[C@H]2[C@@H](O)C=C[C@H]3[C@H]1C5 [NALORPHINE]
Activity [32]: inactive
Activity [21]: Active
ED50 [1]: 36.3 mg/kg
Activity [22]: Active
ED50 [4]: 4.8 mg/kg

CC[C@H]1[C@H]2Cc3ccc(O)cc3[C@@]1(C)CCN2C (racemic)
Activity [33]: Toxic
Activity [32]: inactive
ED50 [1]: 1.3 mg/kg
ED50 [6]: 0.2 mg/kg
ED50 [2]: 6.4 mg/kg
Activity [34]: Toxic
